From patent US8088788B2, “Substituted fused[1,2] imidazo[4,5-c] ring compounds and methods” (3M Innovative Properties Company, priority 2006, dated 2012)

melting point [°C]	Structure (SMILES)
> 250	Nc1nc2ccccc2c2c1nc1n2CCCN1 [Example 5, 8,9,10,11-Tetrahydropyrimido[1′,2′:1,2]imidazo[4,5-c]quinolin-6-amine]
265 to 273	C[C@H]1CNc2nc3c(N)nc4ccccc4c3n21 [Example 27, (10S)-10-Methyl-9,10-dihydro-8H-imidazo[1′,2′:1,2]imidazo[4,5-c]quinolin-6-amine]
272 to 274	C[C@@H]1CNc2nc3c(N)nc4ccccc4c3n21 [Example 28, (10R)-10-Methyl-9,10-dihydro-8H-imidazo[1′,2′:1,2]imidazo[4,5-c]quinolin-6-amine]

The remaining lines, values behind:

Structure (SMILES)	melting point [°C]
CC1CCc2nc3c(N)nc4ccccc4c3n2N1 (stereo not drawn) [Example 24, 10-Methyl-8,9,10,11-tetrahydropyridazino[1′,6′:1,2]imidazo[4,5-c]quinolin-6-amine]	241 to 243
Nc1nc2cc(Br)ccc2c2c1nc1n2CCCO1 [Example 7, 3-Bromo-10,11-dihydro-9H-[1,3]oxazino[3′,2′:1,2]imidazo[4,5-c]quinolin-6-amine]	273 to 276
Cc1ccc(S(=O)(=O)n2ccc3nc4c(N)nc5ccccc5c4n32)cc1 [Example 25, 10-[(4-Methylphenyl)sulfonyl]-10H-pyrazolo[1′,5′:1,2]imidazo[4,5-c]quinolin-6-amine]	204 to 206
